In patent publication US4001419A, “1'-Substituted xanthene-9-spiro-4'-piperidine derivatives” (Imperial Chemical Industries Limited, priority 1974, dated 1977):

Assay: LD50 (acute toxicity)
Design: species or system mice
Conditions: mouse, in vivo; intravenous; read-out: LD50 when dosed intravenously
Method: All the compounds exemplified in this specification are active on at least one of these standard tests at a dose of equal to or less than 100 mg./kg. of the free base. […] Other LD50 values for compounds of the invention when dosed intravenously are as follows: […]

SMILES	LD50 [mg/kg]
CN1CCC2(CC1)c1ccc(Cl)cc1Oc1c(O)cccc12 [6-chloro-4-hydroxy-1'-methylxanthene-9-spiro-4'-piperidine]	> 25
COc1ccc2c(c1)Oc1c(OC(C)=O)cccc1C21CCN(C)CC1 [4-OAc H 6-OMe H]	> 20
CC(=O)Oc1cccc2c1Oc1cc(Cl)ccc1C21CCN(C)CC1 [4-OAc H 6-Cl H]	> 35
CN1CCC2(CC1)c1cccc(O)c1Oc1cccc(F)c12 [4-OH H 8-F H]	> 20
CSc1ccc2c(c1)Oc1c(OC(C)=O)cccc1C21CCN(C)CC1 [4-OAc H 6-SMe H]	> 40

Same assay, conditions: mouse, in vivo; mice, oral; read-out: oral LD50

SMILES	LD50 [mg/kg]
CN1CCC2(CC1)c1ccc(Cl)cc1Oc1c(O)cccc12 [6-chloro-4-hydroxy-1'-methylxanthene-9-spiro-4'-piperidine]	> 200
